Results: patent US12642781B2, “Adenomyosis associated infertility and hdac inhibitors” (NADEZHDA REPRODUCTIVE SCIENCE OOD, priority 2020, dated 2026)

Legend:
adenomyosis lesions = test: Clinical treatment of women with adenomyosis: lesion assessment by 2D/3D ultrasound, MRI and colour Doppler; assay type: in vivo
Experimental: A 100 mg/ml solution of sodium valproate for injection or infusion was prepared.
This solution is drawn in 5 ml Luer lock syringe and administrated in the lesion(s) through special needle. We have used—OPU needle 18G, with echo tip and length at least 15 cm. The solution was administered in the ultrasound-guided manner in all visible lesions. The access was through the vagina.
(§1) Intralesional application must start with the lesions located closest to the cavum uteri, in the so-called junctional zone, because these have the strongest influence on fertility. The procedure is performed under short-term intravenous anesthesia to ensure patient comfort and immobility during application; patients report no pain after anesthesia wear off.
The first oral dose must be taken between 9 h and 16 h after the end of intralesion application in order to achieve a steady state in patient plasma.
Sodium valproate 500 mg prolonged-release tablets were used.
To eliminate operator bias, all TVUS scans of the same patient at baseline and after start of treatment were performed by the same specialist on the same ultrasound machine.
There were tested 37 women with adenomyosis and a history of infertility and/or abortions.

[1] = Safety and tolerability of the treatment regimen (safety lab blood tests, adverse events); assay type: in vivo, women
Experimental: as §1
The safety lab panel included liver function tests (AST, ALT, LDH), as well as complete blood count.

[2] = system: adenomyosis associated infertility; test: Pregnancy outcome of IVF after the treatment regimen; assay type: in vivo, women
Experimental: Sodium valproate 500 mg prolonged-release tablets were used. […] There were tested 37 women with adenomyosis and a history of infertility and/or abortions. […] One month after End of Treatment, a new IVF cycle is ready to be started, and pregnancies are followed up to full term birth. […] Pregnancy rate was measured and is described below in Table 6: […]

[3] = after the first two months of oral VPA following intralesional VPA administration

## CCCC(CCC)C(=O)O [VPA, valproic acid]
Adenomyosis lesions; 37 women with adenomyosis and a history of infertility and/or abortions
  response of lesions to treatment: Some of the lesions disappeared completely and some of them were significantly reduced in size
Adenomyosis lesions; [3]
  central vascularity of lesions (Colour Doppler): absent
  reduction in size of lesion dimensions (ultrasound): up to 2 fold
Adenomyosis lesions; monthly follow-up for three months after end of treatment
  progression of adenomyosis: no progression of adenomyosis was observed
[1]; 1000 mg VPA daily oral
  patients who reported dizziness and stopped oral VPA intake: 2
[1]; after anesthesia wear off
  pain after intralesional application: no pain
[1]; before start and every 30 days till end of treatment
  safety lab results (AST, ALT, LDH, complete blood count): in normal range
[2]; Group 2, N 13 of 37, Test Prop. .8, Exact Sig. (1-tailed) .023
  Observed Prop. (Binomial Test, Pregnancy CODE 1.00): .4
[2]; in vivo
  pregnancy terminations, or uterine obstetric complications during C-Section: No pregnancy terminations, or uterine obstetric complications during C-Section
[2]; new IVF cycle one month after End of Treatment, results up to date
  pregnancy rate: 85%
[2]; results up to date
  healthy full-term babies: 10
